What was measured:
Type in all cases: cell-based
bifidobacteria (I-2494) = assay: Development of the population of bifidobacteria in the model preserved at 4° C., filtered or autoclaved stimulant (Example 4); details: 50 mg/l; for population of bifidobacteria D 10: 10 days after placing in pots; for population of bifidobacteria D 10 / population of bifidobacteria D 24 / population of bifidobacteria D 29 / population of bifidobacteria D 0: preserved at 4° C.; for population of bifidobacteria D 24: 24 days after placing in pots; for population of bifidobacteria D 29: 29 days after placing in pots; for population of bifidobacteria D 0: placing in pots (packaging); for effect of the supply on the population of bifidobacteria: filtered or autoclaved, relative to control
Method: The impact of sterilization by filtration or thermization of the cysteine and methionine is assessed (final concentration used: 50 mg/l). The solutions are either filtered at 0.2 μm or autoclaved for 5 minutes at 121° C. then frozen in the form of beads in liquid nitrogen. Constitution of the model: Milex skimmed milk powder supplied by Arla food: 120 g […] Heat treatment: pasteurization for 30 minutes at 95° C. in a bubbling water bath Cysteine: supplier Sigma. The solution is prepared at 500 g/l, filtered on a 0.2 μm Nalgène filter unit or sterilized at 121° C. for 5 minutes by an autoclave controlled by temperature probe ([…] France S.A., reference KL 60/101). This solution is injected sterilely into the pasteurized model for a final concentration of 50 mg/l. […] The solution is prepared at 300 g/l; the filtration or sterilization treatment is identical to that carried out for the cysteine solution. This solution is injected sterilely into the pasteurized model for a final concentration of 50 mg/l. The seeding doses are referred to in Table 3 below. The seeding is 5.10^6 CFU/ml of Streptococcus thermophilus and 5.10^6 CFU/ml of Lactobacillus bulgaricus. The monitoring of the population of bifidobacteria in the model preserved at 4° C. as a function of the various conditions above is represented in FIG. 3 as well as in Table 4 below: The reference time D0 corresponds to placing in pots (packaging).

[1] = test system: ferment comprising Streptococcus thermophilus (CNCM: I-1630), Lactobacillus delbrueckii ssp. bulgaricus (CNCM: I-1632, I-1519) and Bifidobacterium animalis ssp …; assay: Monitoring of the acidification of the milk product model by the ferment of Example 1; details: vitamin C 0.5 g/l, cysteine 50 mg/l; for acidification curve compared with control / vitamin C curve: FIG. 1; for Ta = latency time / Tmax = time at Vmax / TpH 4.8 = time to arrive at pH 4.8 / TpH 5 = time to arrive at pH 5 / TpH 5.5 = time to arrive at pH 5.5 / Vmax = maximum rate / pH 0 = pH at start of fermentation / pHm = pH at the maximum acidification rate: milk model at 37° C.
Method: A ferment comprising Streptococcus thermophilus (CNCM: I-1630)+Lactobacillus delbreckii ssp. bulgaricus (CNCM: I-1632)+Lactobacillus delbrueckii ssp. bulgaricus (CNCM: I-1519)+Bifidobacterium animalis ssp lactis (CNCM: I-2494) is used.
The growth of bifidobacteria in milk is measured in the presence of a solution of vitamin C (0.5 g/l) completely reducing the oxygen in the medium, and a solution of cysteine (50 mg/l).
Constitution of the product model:
Milex skimmed milk powder supplied by Arla food: 120 g
Water: quantity sufficient for 1 kg
A heat treatment is carried out involving pasteurization for 30 minutes at 95° C. in a bubbling water bath.
The cysteine is supplied by Sigma. The solution is prepared at 500 g/l, filtered on a 0.2 μm Nalgène filter unit. This solution is used injected sterilely into the pasteurized model for a final concentration of 50 mg/l.
The vitamin C is supplied by Sigma. The solution is prepared at 100 g/l, filtered on a 0.2 μm Nalgène filter unit (cat. 156-4020, Nalge Europe Ltd, Belgium). This solution is used injected sterilely into the pasteurized model for a final concentration of 0.5 g/l.
The seeding is 5.10^6 CFU/ml of Streptococcus thermophilus and 5.10^6 CFU/ml of Lactobacillus bulgaricus.
The monitoring of the acidification of the model at 37° C. is represented in Table 2 below as well as in FIG. 1.

[2] = test system: Bifidobacterium animalis ssp lactis (CNCM: I-2494); assay: Growth of bifidobacteria in milk, quantity at the end of the fermentation (Example 1); details: milk model at 37° C.; vitamin C 0.5 g/l, cysteine 50 mg/l
Method: A ferment comprising Streptococcus thermophilus (CNCM: I-1630)+Lactobacillus delbreckii ssp. bulgaricus (CNCM: I-1632)+Lactobacillus delbrueckii ssp. bulgaricus (CNCM: I-1519)+Bifidobacterium animalis ssp lactis (CNCM: I-2494) is used. The growth of bifidobacteria in milk is measured in the presence of a solution of vitamin C (0.5 g/l) completely reducing the oxygen in the medium, and a solution of cysteine (50 mg/l). A heat treatment is carried out involving pasteurization for 30 minutes at 95° C. in a bubbling water bath. The cysteine is supplied by Sigma. The solution is prepared at 500 g/l, filtered on a 0.2 μm Nalgène filter unit. This solution is used injected sterilely into the pasteurized model for a final concentration of 50 mg/l. The vitamin C is supplied by Sigma. The solution is prepared at 100 g/l, filtered on a 0.2 μm Nalgène filter unit (cat. 156-4020, Nalge Europe Ltd, Belgium). This solution is used injected sterilely into the pasteurized model for a final concentration of 0.5 g/l. The seeding is 5.10^6 CFU/ml of Streptococcus thermophilus and 5.10^6 CFU/ml of Lactobacillus bulgaricus.

Bifidobacterium = assay: Population of bifidobacteria during preservation at 10° C., cysteine incorporated before pasteurization (Example 5)
Method: This concentration was assessed on direct incorporation in the model and pasteurized composition (95° C., 30 minutes). The monitoring of the population of bifidobacteria in the product model during preservation at 10° C. is represented in FIG. 4.

bifidobacteria = assay: Populations of bifidobacteria in products with increasing doses of cysteine (Example 7)
Method: Different products were prepared with increasing doses of cysteine (see the table below). The control was the standard dairy product containing the ferment.

[3] = test system: ferment comprising Streptococcus thermophilus (CNCM: I-2272, I-2773, I-2130), Lactobacillus delbrueckii ssp. bulgaricus (CNCM: I-1519) and Bifidobacterium …; assay: Acidification kinetics of milk with the ferment of Example 2 (Example 3); details: 15 mg/L cysteine versus control without cysteine
Description: A ferment comprising Streptococcus thermophilus (CNCM: I-2272)+Streptococcus thermophilus (CNCM: I-2773)+Streptococcus thermophilus (CNCM: I-2130)+Lactobacillus delbrueckii ssp. bulgaricus (CNCM: I-1519)-+Bifidobacterium animalis ssp lactis (CNCM: I-2494) is used. The ferment described in Example 2 is used.

[4] = test system: Bifidobacterium animalis ssp lactis (CNCM: I-2494); assay: Population of bifidobacteria in milk models (stirred yogurts) during preservation at 10° C. (Example 2)
Method: A ferment comprising Streptococcus thermophilus (CNCM: I-2272)+Streptococcus thermophilus (CNCM: I-2773)+Streptococcus thermophilus (CNCM: I-2130)+Lactobacillus delbrueckii ssp. bulgaricus (CNCM: I-1519)-+Bifidobacterium animalis ssp lactis (CNCM: I-2494) is used. “Milk models” are constituted by standard stirred yogurts comprising the ferment described above. The use of 0.2 μm-filtered cysteine was assessed in the “milk models” in proportions comprised from 5 mg/l to 50 mg/l (preferably from 5 to 20 mg/l). For the bifidobacteria counting method, reference may be made to M. Grand et al., Quantitative analysis and molecular identification of bifidobacteria strains in probiotic milk products, Eur. Food Res. Technol. 217:90-92 (2003).

## N[C@@H](CS)C(=O)O [Autoclaved cysteine, L-cysteine]
Bifidobacteria (I-2494)
  population of bifidobacteria D 10: 5.2.10^8 CFU/ml
  population of bifidobacteria D 24: 2.8.10^8 CFU/ml
  population of bifidobacteria D 29: 1.7.10^8 CFU/ml
  population of bifidobacteria D 0: 3.1 · 10^8 CFU/ml

## CSCCC(N)C(=O)O [Autoclaved methionine, L-methionine ((S)-2-amino-4-methylthio-butyric acid)]
Bifidobacteria (I-2494)
  population of bifidobacteria D 10: 3.5 · 10^8 CFU/ml
  population of bifidobacteria D 24: 3.5 · 10^8 CFU/ml
  population of bifidobacteria D 29: 2.8 · 10^8 CFU/ml
  population of bifidobacteria D 0: 3.4.10^8 CFU/ml

## O=C1O[C@H]([C@@H](O)CO)C(O)=C1O [Vitamin C, vitamin C, reference compound]
[1]
  acidification curve compared with control / vitamin C curve: virtually indistinguishable from the control acidification curve
  Ta = latency time: 86 min
  Tmax = time at Vmax: 3.07 h
  TpH 4.8 = time to arrive at pH 4.8: 479 minutes
  TpH 5 = time to arrive at pH 5: 391 minutes
  TpH 5.5 = time to arrive at pH 5.5: 260 minutes
  Vmax = maximum rate: −0.0079 pH units/minute
  pH 0 = pH at start of fermentation: 6.5
  pHm = pH at the maximum acidification rate: 5.96
[2]
  D 0 CFU/ml = quantity of bifidobacteria obtained at the end of the fermentation: 1.02 · 10^8 CFU/ml

## N[C@@H](CS)C(=O)O [cysteine, L-cysteine]
Bifidobacterium; 12 mg/l cysteine incorporated before pasteurization (95° C., 30 minutes)
  population of Bifidobacterium after 44 days of preservation at 10° C.: above 1.4.10^8 CFU/ml
Bifidobacterium; 12 mg/l cysteine incorporated before pasteurization (95° C., 30 minutes), 10° C.
  population of Bifidobacterium at D1 (24 hours of storage): 2.4.10^8 CFU/ml
Bifidobacterium; filtered cysteine, not heat treated (comparison)
  population of Bifidobacterium on addition of 0.2 μm filtered cysteine to the model: 3.10^8 CFU/ml
[1]
  acidification curve compared with control / vitamin C curve: differs from the acidification curve in the presence of vitamin C
  Ta = latency time: 90 min
  Tmax = time at Vmax: 3.47 h
  TpH 4.8 = time to arrive at pH 4.8: 417 minutes
  TpH 5 = time to arrive at pH 5: 354 minutes
  TpH 5.5 = time to arrive at pH 5.5: 248 minutes
  Vmax = maximum rate: −0.01046 pH units/minute
  pH 0 = pH at start of fermentation: 6.6
  pHm = pH at the maximum acidification rate: 5.82
bifidobacteria; Test 1, cysteine 0.008%
  Populations (CFU/mL) T0: 4.40E+06 CFU/mL
  Populations (CFU/mL) Tf 495 min: 1.70E+08 CFU/mL
bifidobacteria; Test 2, cysteine 0.005%
  Populations (CFU/mL) T0: 4.70E+06 CFU/mL
  Populations (CFU/mL) T pH 4.8: 1.90E+08 CFU/mL
  Populations (CFU/mL) Tf 495 min: 2.40E+08 CFU/mL
bifidobacteria; Test 3, cysteine 0.002%
  Populations (CFU/mL) T0: 3.30E+06 CFU/mL
  Populations (CFU/mL) T pH 4.8: 2.50E+08 CFU/mL
  Populations (CFU/mL) Tf 495 min: 3.10E+08 CFU/mL
bifidobacteria; Test 5, cysteine 0.001%
  Populations (CFU/mL) T0: 3.10E+06 CFU/mL
  Populations (CFU/mL) T pH 4.8: 1.50E+08 CFU/mL
  Populations (CFU/mL) Tf 495 min: 2.40E+08 CFU/mL
bifidobacteria; Test 6, cysteine 0.0005%
  Populations (CFU/mL) T0: 3.90E+06 CFU/mL
  Populations (CFU/mL) T pH 4.8: 1.10E+08 CFU/mL
  Populations (CFU/mL) Tf 495 min: 1.20E+08 CFU/mL
Bifidobacteria (I-2494)
  effect of the supply on the population of bifidobacteria: increased
Bifidobacteria (I-2494); listed as Filtered cysteine
  population of bifidobacteria D 10: 4.3 · 10^8 CFU/ml
  population of bifidobacteria D 24: 4.0 · 10^8 CFU/ml
  population of bifidobacteria D 0: 5.1.10^8 CFU/ml
[3]
  effect on the overall acidification kinetics of milk: absence of the effect
[2]
  D 0 CFU/ml = quantity of bifidobacteria obtained at the end of the fermentation: 2.79 · 10^8 CFU/ml
[4]; 0.0015% i.e. 15 mg/l of filtered cysteine
  Bifidobacterium I-2494 population after 28 days of preservation at 10° C.: 2.8.10^8 CFU/ml
[4]; dose of 0.0015% cysteine
  Bifidobacterium population: > 2.10^8 CFU/ml
[4]; highest concentration of L cysteine (range 5 mg/l to 50 mg/l)
  population of bifidobacteria after preservation for up to 28 days at 10° C.: remains stable
[4]; highest concentration of L cysteine (range 5 mg/l to 50 mg/l), 0.2 μm-filtered
  population of bifidobacteria at D+24 h: 3.10^8 CFU/ml
[4]; lowest concentration of L cysteine (range 5 mg/l to 50 mg/l)
  population of bifidobacteria at D+24 h: 1.10^8 CFU/ml

## CSCCC(N)C(=O)O [methionine, L-methionine ((S)-2-amino-4-methylthio-butyric acid)]
Bifidobacteria (I-2494)
  effect of the supply on the population of bifidobacteria: increased
Bifidobacteria (I-2494); listed as Filtered methionine
  population of bifidobacteria D 10: 6.2 · 10^8 CFU/ml
  population of bifidobacteria D 24: 3.4 · 10^8 CFU/ml
  population of bifidobacteria D 29: 2.3 · 10^8 CFU/ml
  population of bifidobacteria D 0: 4.0.10^8 CFU/ml

Source: patent publication US8158172B2, “Fermented food products containing probiotics strains, and method for preparing same” (Compagnie Gervais Danone, priority 2006, dated 2012)
